The values below are quoted from earlier work in patent US20240000752A1, “MICROSUSPENSION AGAINST PARASITES AND METHOD FOR OBTAINING SAME” (Ipanema Industria de Productos Veterinarios Ltda, priority 2020, published 2024).

For data set [1], the system named is Ostertagia ostertagi Cooperia pectinata, Cooperia punctata, Trichostrongylus axei, Trichostrongylus colubriformis, Oesophagostomum radiatum, Haemonchus placei ….

As to `CO[C@H]1C[C@H](O[C@H]2[C@H](C)O[C@@H](O[C@@H]3/C(C)=C/C[C@@H]4C[C@@H](C[C@]5(C=C[C@H](C)[C@@H](C6CCCCC6)O5)O4)OC(=O)[C@@H]4C=C(C)[C@@H](O)[C@H]5OC/C(=C\C=C\[C@@H]3C)[C@]54O)C[C@@H]2OC)O[C@@H](C)[C@@H]1O` [doramectin], the “efficacy against endoparasites and ectoparasites” value in data set [1] is listed as “effective”. `CCC[S+]([O-])c1ccc2[nH]c(NC(=O)OC)nc2c1` (stereo not drawn) [albendazole sulfoxide]: the pka was 7.8 and the solubility in water result is listed as “low solubility in water”.
